This passage reports pest or weed control results from patent US9144239B2, “Macrocyclic picolinamides as fungicides” (DOW AGROSCIENCES LLC, priority 2012, dated 2015).

Where two headings read alike, the source gives them in different places.

The test system of experiment [1] is Puccinia triticina; synonym: Puccinia recondita f. sp. tritici. The experiment in a line: Fungicidal activity: wheat brown rust (PUCCRT), wheat seedlings. It counts as in vivo. Here is the method: Technical grades of materials were dissolved in acetone, which were then mixed with nine volumes of water containing 110 ppm Triton X-100. The fungicide solutions were applied onto wheat seedlings using an automated booth sprayer to run-off. All sprayed plants were allowed to air dry prior to further handling. Wheat plants (variety Yuma) were grown from seed in a greenhouse in 50% mineral soil/50% soil-less Metro mix until the first leaf was fully emerged, with 7-10 seedlings per pot. These plants were inoculated with an aqueous spore suspension of Septoria tritici either prior to or after fungicide treatments. After inoculation the plants were kept in 100% relative humidity (one day in a dark dew chamber followed by two to three days in a lighted dew chamber at 20° C.) to permit spores to germinate and infect the leaf. The plants were then transferred to a greenhouse set at 20° C. for disease to develop. When disease symptoms were fully expressed on the 1st leaves of untreated plants, infection levels were assessed on a scale of 0 to 100 percent disease severity. Percent disease control was calculated using the ratio of disease severity on treated plants relative to untreated plants. Evaluation of Fungicidal Activity: Wheat Brown Rust (Puccinia […]; Synonym: Puccinia recondita f. Sp. Tritici; Bayer Code PUCCRT) Wheat plants (variety Yuma) were grown from seed in a greenhouse in 50% mineral soil/50% soil-less Metro mix until the first leaf was fully emerged, with 7-10 seedlings per pot. These plants were inoculated with an aqueous spore suspension of Puccinia triticina either prior to or after fungicide treatments. After inoculation the plants were kept in a dark dew room at 22° C. with 100% relative humidity overnight to permit spores to germinate and infect the leaf. The plants were then transferred to a greenhouse set at 24° C. for disease to develop. Fungicide formulation, application and disease assessment followed the procedures as described in the Example A.

Experiment [2] deals with Mycosphaerella graminicola; anamorph: Septoria tritici. The experiment in a line: Fungicidal activity: leaf blotch of wheat (SEPTTR), wheat seedlings. The experiment is classed as in vivo. The note with it: Zymoseptoria tritici. As to the method:
Evaluation of Fungicidal Activity: Leaf Blotch of Wheat (Mycosphaerella Graminicola; Anamorph: Septoria tritici; Bayer Code […]) Technical grades of materials were dissolved in acetone, which were then mixed with nine volumes of water containing 110 ppm Triton X-100. The fungicide solutions were applied onto wheat seedlings using an automated booth sprayer to run-off. All sprayed plants were allowed to air dry prior to further handling. Wheat plants (variety Yuma) were grown from seed in a greenhouse in 50% mineral soil/50% soil-less Metro mix until the first leaf was fully emerged, with 7-10 seedlings per pot. These plants were inoculated with an aqueous spore suspension of Septoria tritici either prior to or after fungicide treatments. After inoculation the plants were kept in 100% relative humidity (one day in a dark dew chamber followed by two to three days in a lighted dew chamber at 20° C.) to permit spores to germinate and infect the leaf. The plants were then transferred to a greenhouse set at 20° C. for disease to develop. When disease symptoms were fully expressed on the 1st leaves of untreated plants, infection levels were assessed on a scale of 0 to 100 percent disease severity. Percent disease control was calculated using the ratio of disease severity on treated plants relative to untreated plants.

The mark [3] stands for this setting: 72 h, 100 ppm, 3 Day Curative, wheat, read-out: Disease Control PUCCRT 3DC.
Setting [4] is: 24 h, 100 ppm, 1 Day Protectant, wheat, read-out: Disease Control SEPTTR 1DP.
[5] abbreviates: 24 h, 100 ppm, 1 Day Protectant, wheat, read-out: Disease Control PUCCRT 1DP.
The mark [6] stands for this setting: 72 h, 100 ppm, 3 Day Curative, wheat, read-out: Disease Control SEPTTR 3DC.
Setting [7] is: 24 h, read-out: Disease Control PUCCRT 1DP.
Where [8] appears, read: 72 h, read-out: Disease Control PUCCRT 3DC.
Where [9] appears, read: 24 h, read-out: Disease Control SEPTTR 1DP.
Where [10] appears, read: 72 h, read-out: Disease Control SEPTTR 3DC.

With `COc1ccnc(C(=O)N[C@H]2COC[C@H](OCC(C)C)[C@@H](OCC(C)C)[C@@H](COCC(C)C)OC2=O)c1O` [Compound 15, N-((3S,7S,8R,9R)-7,8-diisobutoxy-9-(isobutoxymethyl)-2-oxo-1,5-dioxonan-3-yl)-3-hydroxy-4-methoxypicolinamide], the pest or weed control at 100 ppm in experiment [1] (setting [3]) and in experiment [2] (setting [4]) was 0 to 80% throughout.

In the case of `COc1ccnc(C(=O)N[C@@H]2COC[C@H](OCC(C)C)[C@@H](OCC(C)C)[C@@H](COCC(C)C)OC2=O)c1O` [Compound 16], the pest or weed control at 100 ppm in experiment [1] (setting [5]), in experiment [1] (setting [3]) and in experiment [2] (setting [4]) was 0 to 80% each time.

For the compound `COc1ccnc(C(=O)N[C@H]2COC[C@H](Oc3ccc(C)cc3)[C@@H](Oc3ccc(C)cc3)[C@H](C)OC2=O)c1O` [Compound 206], the pest or weed control at 100 ppm in experiment [1] (setting [5]), in experiment [1] (setting [3]), in experiment [2] (setting [4]) and in experiment [2] (setting [6]) was 80 to 100% throughout.

Take `COc1ccnc(C(=O)N[C@H]2COC[C@H](OCC(C)C)[C@@H](Oc3cccc(Cl)c3)[C@H](C)OC2=O)c1O` [Compound 194]: the pest or weed control at 100 ppm in experiment [1] (setting [5]) and in experiment [1] (setting [3]) was 80 to 100% each time.

With `CC[C@H]1OC(=O)[C@H](NC(=O)c2nccc(OC)c2O)COC[C@H](OCC(C)C)[C@H]1OCC(C)C` [Compound 22], the pest or weed control at 100 ppm in experiment [2] (setting [4]) and in experiment [2] (setting [6]) was 0 to 80% in each case.

As to `COc1ccnc(C(=O)N[C@H]2COC[C@H](Oc3ccccc3)[C@@H](OC3CCCC3)[C@H](C)OC2=O)c1OCOC(C)=O` [Compound 224], the pest or weed control at 100 ppm in experiment [1] (setting [5]), in experiment [1] (setting [3]), in experiment [2] (setting [4]) and in experiment [2] (setting [6]) was 80 to 100% throughout.

For `COc1ccnc(C(=O)N[C@H]2CO[C@@H](C)C(OCc3ccccc3)C(OCc3ccccc3)[C@H](C)OC2=O)c1OCOC(C)=O` (stereo partly drawn) [Compound 28], the pest or weed control at 100 ppm in experiment [1] (setting [5]), in experiment [1] (setting [3]), in experiment [2] (setting [4]) and in experiment [2] (setting [6]) was 80 to 100% in each case.

In the case of `COc1ccnc(C(=O)N[C@H]2CO[C@@H](C)[C@H](OCC(C)C)[C@@H](OCC(C)C)COC2=O)c1OCOC(=O)C(C)C` [Compound 7], the pest or weed control at 100 ppm in experiment [1] (setting [5]), in experiment [2] (setting [4]) and in experiment [2] (setting [6]) was 80 to 100% in each case.

For `COc1ccnc(C(=O)N[C@H]2COC[C@H](Oc3ccc(F)cc3)[C@@H](Oc3ccc(F)cc3)[C@H](C)OC2=O)c1O` [Compound 208], the pest or weed control at 100 ppm in experiment [1] (setting [5]) was 80 to 100%; in experiment [2] (setting [4]) it was 80 to 100%; in experiment [2] (setting [6]), 0 to 80%.

Turning to `COc1ccnc(C(=O)N[C@H]2CO[C@@H](C)[C@H](OCc3ccccc3)[C@@H](OCc3ccccc3)[C@H](C)OC2=O)c1O` [Compound 25], the pest or weed control at 100 ppm in experiment [1] (setting [5]) lay in the range of 80 to 100%; in experiment [1] (setting [3]), 0 to 80%; in experiment [2] (setting [4]) it was 80 to 100%; in experiment [2] (setting [6]) it was 0 to 80%.

As for `CCCCO[C@H]1COC[C@H](NC(=O)c2nccc(OC)c2O)C(=O)O[C@@H](C)[C@@H]1OC(=O)C(C)C` [Compound 46, (3S,6S,7S,8S)-8-butoxy-3-(3-hydroxy-4-methoxypicolinamido)-6-methyl-4-oxo-1,5-dioxonan-7-yl isobutyrate], the pest or weed control at 100 ppm in experiment [1] (setting [7]), in experiment [1] (setting [8]), in experiment [2] (setting [9]) and in experiment [2] (setting [10]) was 80 to 100% throughout.

For `COc1ccnc(C(=O)N[C@H]2COC[C@@H](OCc3ccccc3)[C@H](OCc3ccccc3)[C@H](C)OC2=O)c1OCOC(C)=O` [Compound 40], the pest or weed control at 100 ppm lay in the range of 80 to 100% in experiment [1] (setting [5]), 0 to 80% in experiment [1] (setting [3]), 0 to 80% in experiment [2] (setting [4]) and 0 to 80% in experiment [2] (setting [6]).

Take `COc1ccnc(C(=O)N[C@@H]2COC[C@H](OCC(C)C)[C@@H](OCC(C)C)[C@@H](COCC(C)C)OC2=O)c1OCOC(C)=O` [Compound 18]: the pest or weed control at 100 ppm in experiment [1] (setting [5]), in experiment [1] (setting [3]) and in experiment [2] (setting [4]) was 0 to 80% in each case.

With `COc1ccnc(C(=O)N[C@H]2COC[C@H](Oc3ccc(C)cc3)[C@@H](Oc3ccc(C)cc3)[C@H](C)OC2=O)c1OCOC(C)=O` [Compound 226], the pest or weed control at 100 ppm in experiment [1] (setting [5]), in experiment [1] (setting [3]), in experiment [2] (setting [4]) and in experiment [2] (setting [6]) was 80 to 100% throughout.

As to `COc1ccnc(C(=O)N[C@@H]2COC[C@H](OCc3ccccc3)[C@@H](OCc3ccccc3)[C@@H](C)OC2=O)c1O` [Compound 30, N-((3R,7S,8S,9R)-7,8-bis(benzyloxy)-9-methyl-2-oxo-1,5-dioxonan-3-yl)-3-hydroxy-4-methoxypicolinamide], the pest or weed control at 100 ppm in experiment [1] (setting [7]), in experiment [1] (setting [8]), in experiment [2] (setting [9]) and in experiment [2] (setting [10]) was 0 to 80% in each case.

For `COc1ccc(O[C@H]2[C@H](C)OC(=O)[C@@H](NC(=O)c3nccc(OC)c3O)COC[C@@H]2Oc2ccc(OC)cc2)cc1` [Compound 201], the pest or weed control at 100 ppm was 80 to 100% in experiment [1] (setting [5]), 80 to 100% in experiment [2] (setting [4]) and 0 to 80% in experiment [2] (setting [6]).

For `COc1ccnc(C(=O)N[C@H]2COC[C@H](Oc3ccc(F)cc3)[C@@H](OCC(C)C)[C@H](C)OC2=O)c1O` [Compound 207], the pest or weed control at 100 ppm in experiment [1] (setting [5]), in experiment [1] (setting [3]), in experiment [2] (setting [4]) and in experiment [2] (setting [6]) was 80 to 100% throughout.

On to `COc1ccnc(C(=O)N[C@@H]2COC[C@@H](OCc3ccccc3)[C@H](OCc3ccccc3)[C@H](C)OC2=O)c1OCOC(C)=O` [Compound 41], for which the pest or weed control at 100 ppm in experiment [1] (setting [5]), in experiment [2] (setting [4]) and in experiment [2] (setting [6]) was 0 to 80% in each case.

Consider `COc1ccnc(C(=O)N[C@H]2COC[C@H](Oc3ccccc3)[C@@H](OC3CCCC3)[C@H](C)OC2=O)c1O` [Compound 205], for which the pest or weed control at 100 ppm in experiment [1] (setting [5]), in experiment [1] (setting [3]), in experiment [2] (setting [4]) and in experiment [2] (setting [6]) was 80 to 100% throughout.

Consider `COc1ccnc(C(=O)N[C@H]2COC[C@H](Oc3ccccc3)[C@@H](OCC=C3CCCCC3)[C@H](C)OC2=O)c1O` [Compound 212], for which the pest or weed control at 100 ppm in experiment [1] (setting [5]) was 80 to 100%; in experiment [1] (setting [3]) it was 0 to 80%; in experiment [2] (setting [4]), 80 to 100%; in experiment [2] (setting [6]), 0 to 80%.

With `COc1ccc(O[C@H]2COC[C@H](NC(=O)c3nccc(OC)c3O)C(=O)O[C@@H](C)[C@@H]2OC(=O)C(C)C)cc1` [Compound 200], the pest or weed control at 100 ppm in experiment [2] (setting [4]) was in the range of 0 to 80%.

In the case of `CC[C@H]1OC(=O)[C@@H](NC(=O)c2nccc(OC)c2O)COC[C@H](OCC(C)C)[C@H]1OCC(C)C` [Compound 19, N-((3S,7S,8S,9R)-9-ethyl-7,8-diisobutoxy-2-oxo-1,5-dioxonan-3-yl)-3-hydroxy-4-methoxypicolinamide], the pest or weed control at 100 ppm in experiment [2] (setting [4]) and in experiment [2] (setting [6]) was 0 to 80% each time.

For the compound `COc1ccnc(C(=O)N[C@H]2COC[C@H](OCC(C)C)[C@@H](Oc3ccc(C(F)(F)F)cc3)[C@H](C)OC2=O)c1O` [Compound 195], the pest or weed control at 100 ppm in experiment [1] (setting [5]) fell in the range of 80 to 100%.

As for `CCCO[C@H]1[C@H](C)OC(=O)[C@@H](NC(=O)c2nccc(OC)c2O)COC[C@@H]1Oc1ccc(C(F)(F)F)cc1` [Compound 197], in experiment [1] (setting [5]), the pest or weed control at 100 ppm was 80 to 100%.

Consider `CC[C@H]1OC(=O)[C@@H](NC(=O)c2nccc(OC)c2OCOC(C)=O)COC[C@H](OCC(C)C)[C@H]1OCC(C)C` [Compound 20], for which the pest or weed control at 100 ppm in experiment [2] (setting [4]) and in experiment [2] (setting [6]) was 0 to 80% in each case.
